Measured values taken from patent publication US5352667A, “Non-peptidic surrogates of the Arg-Gly-Asp sequence and pharmaceutical compositions comprising them” (priority 1991, dated 1994).

Assays:
[1] = tested on: CD4^+ T cell adhesion to LN; assay: Inhibition of activated CD4+ T cell adhesion to laminin (LN); format: cell-based, human; conditions: for % inhibition of adhesion of activated CD4^+ T cell to LN / % Adhesion of activated CD4^+ T cell to LN: 0.2 mM peptides and surrogates, mAb anti-CD29 1/200, anti-VLA5 1/400 diluted; for % inhibition of adhesion of activated CD4^+ T cell to LN: * P<0.05; for % Adhesion of activated CD4^+ T cell to LN: none 55 ± 5
Protocol: (§1) To examine the adhesive properties of the T cells, 1 μg/50 μl/well of either fibronectin (FN) (Sigma), the 120 kD cell attachment fragment of FN (Telios Pharm. Inc. San Diego, CA), or laminin (LN) (Sigma), were added to 96-flat bottom microtiter-wells for 12 h. Unbound proteins were then washed away and remaining binding sites were blocked with 0.1% bovine serum albumin (BSA) added to the wells for 2 h and washed. CD4+T cells were purified from peripheral blood mononuclear leukocytes obtained from healthy human donors. The mononuclear cells were isolated using a Ficoll gradient, washed and incubated in RPMI supplemented with 10% fetal calf serum (FCS) and antibiotics in petri dishes at 37° C. humidified CO2 incubator. After 2 h, the non-adherent cells were isolated and applied on nylon-wool columns (1.5 h). CD4^+ T cells were then negatively selected by exposure of the cells to a cocktail of anti-CD8, CD19, and CD14 monoclonal antibodies (mAb) conjugated to magnetic-beads (Advanced Magnetics, MA). Unbound cells were recovered and their phenotype was examined. Purity of the CD4^+ T cells was always greater than 92% as determined by FACScan.
(§2) The purified CD4^+ T cells were radioactively labeled with ^51 [Cr](New England Nuclear) in RPMI +20% FCS for 2 h and washed. The cells were counted and seeded (0.2×10^5 cells) on the precoated microtiter wells in the presence or the absence of the various inhibitors. Coating was made either with FN, the 120 kD cell-attachment fragment of FN or with control adhesive protein laminin (LN). The inhibitors were various surrogates according to the invention, other test molecules or mAb. After 30 min incubation (in […] CO2 -- humidified incubator) the T cells were activated by 10 ng/ml phorbol myristate acetate (PMA) and the percent of T cells attached to the protein substrates was measured. Unbound cells were washed away after 20-30 min, the bound cells were lysed and their radioactivity was measured using radioactive counter. The amount of the radioactivity of the cell lysates represent the matrix-adherent cells and percent binding was calculated in comparison to the total radioactivity added to the wells. Activated T cell adhesion to control wells or to wells coated with BSA was always 2-5%; the level of adhesion of the non-activated T cells was always below 5%. Where indicated, 1/200 diluted mAb anti-CD29 (anti-β1 mAb Serotec, GB), or 1/400 diluted anti-VLA5 (the β1α5 FN-integrin receptor) mAb (Telios Pharm. Inc. San Diego), or 0.2 mM of RGD, GRGDSPK or GRGESP peptides (Sigma) were used. The tested non-peptidic surrogates, 0.2 mM in PBS, were used to pretreat the T cells for 15 min before seeding the cells *, P<0.05. The results shown in Tables 1A, 1B and 1C represent data obtained from several experiments that produced essentially similar results.
(§3) The four RGD surrogates, AC-4.

[2] = tested on: CD4^+ T cell adhesion to 120 kD fragment of FN; assay: Inhibition of activated CD4+ T cell adhesion to 120 kD fragment of FN; format: cell-based, human; conditions: for % inhibition of adhesion of activated CD4^+ T cell to 120 kD fragment of FN / % Adhesion of activated CD4^+ T cell to 120 kD fragment of FN: 0.2 mM peptides and surrogates, mAb anti-CD29 1/200, anti-VLA5 1/400 diluted; for % inhibition of adhesion of activated CD4^+ T cell to 120 kD fragment of FN: * P<0.05; for % Adhesion of activated CD4^+ T cell to 120 kD fragment of FN: PMA activated, none 43 ± 4; for T cell adhesion to FN, in words: 0.2 mM, 120 kD fragment of FN
Protocol: as §1, §2, §3

[3] = target: T1, platelet GPIIb-IIIa receptor (Homo sapiens, UniProt P05106+P08514); assay: Inhibition of ADP-induced platelet aggregation (platelet rich plasma); format: cell-based; conditions: FIG. 4; fixed sub-saturating 0.5 mM / 10μg/ml; 4 experiments
T1 construct: Platelet concentrates were prepared from human whole blood; endogenous in cells; host or cells: human platelets in platelet rich plasma
T1 sequence (P08514 32-887 limits assumed): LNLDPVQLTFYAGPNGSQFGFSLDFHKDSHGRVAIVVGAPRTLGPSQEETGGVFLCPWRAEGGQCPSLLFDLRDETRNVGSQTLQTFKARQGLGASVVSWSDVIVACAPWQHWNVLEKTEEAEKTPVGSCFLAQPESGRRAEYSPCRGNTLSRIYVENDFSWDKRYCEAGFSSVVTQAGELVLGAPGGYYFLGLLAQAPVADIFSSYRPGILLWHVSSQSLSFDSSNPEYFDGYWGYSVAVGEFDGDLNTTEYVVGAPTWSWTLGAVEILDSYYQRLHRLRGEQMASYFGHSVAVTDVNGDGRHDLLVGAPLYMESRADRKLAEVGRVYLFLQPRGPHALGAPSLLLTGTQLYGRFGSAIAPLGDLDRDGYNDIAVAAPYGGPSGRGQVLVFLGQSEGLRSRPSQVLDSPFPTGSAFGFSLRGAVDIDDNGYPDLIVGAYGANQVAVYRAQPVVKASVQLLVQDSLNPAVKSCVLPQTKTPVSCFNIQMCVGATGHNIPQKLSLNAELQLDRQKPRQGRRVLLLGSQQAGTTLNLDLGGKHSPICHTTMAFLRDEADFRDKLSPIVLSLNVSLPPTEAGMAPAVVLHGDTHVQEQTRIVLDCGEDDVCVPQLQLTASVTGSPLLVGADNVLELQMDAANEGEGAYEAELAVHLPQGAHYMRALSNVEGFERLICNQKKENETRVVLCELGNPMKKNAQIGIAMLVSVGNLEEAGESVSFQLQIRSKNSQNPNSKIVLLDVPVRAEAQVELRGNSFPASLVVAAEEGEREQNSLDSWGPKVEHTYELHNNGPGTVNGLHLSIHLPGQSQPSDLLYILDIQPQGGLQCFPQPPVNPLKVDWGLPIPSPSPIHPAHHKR
T1 sequence (P08514 891-1039 limits assumed): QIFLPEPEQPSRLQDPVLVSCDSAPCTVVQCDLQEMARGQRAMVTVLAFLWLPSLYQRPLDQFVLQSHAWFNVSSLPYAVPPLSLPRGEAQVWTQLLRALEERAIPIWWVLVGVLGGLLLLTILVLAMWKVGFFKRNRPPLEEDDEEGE
T1 sequence (P05106 27-788): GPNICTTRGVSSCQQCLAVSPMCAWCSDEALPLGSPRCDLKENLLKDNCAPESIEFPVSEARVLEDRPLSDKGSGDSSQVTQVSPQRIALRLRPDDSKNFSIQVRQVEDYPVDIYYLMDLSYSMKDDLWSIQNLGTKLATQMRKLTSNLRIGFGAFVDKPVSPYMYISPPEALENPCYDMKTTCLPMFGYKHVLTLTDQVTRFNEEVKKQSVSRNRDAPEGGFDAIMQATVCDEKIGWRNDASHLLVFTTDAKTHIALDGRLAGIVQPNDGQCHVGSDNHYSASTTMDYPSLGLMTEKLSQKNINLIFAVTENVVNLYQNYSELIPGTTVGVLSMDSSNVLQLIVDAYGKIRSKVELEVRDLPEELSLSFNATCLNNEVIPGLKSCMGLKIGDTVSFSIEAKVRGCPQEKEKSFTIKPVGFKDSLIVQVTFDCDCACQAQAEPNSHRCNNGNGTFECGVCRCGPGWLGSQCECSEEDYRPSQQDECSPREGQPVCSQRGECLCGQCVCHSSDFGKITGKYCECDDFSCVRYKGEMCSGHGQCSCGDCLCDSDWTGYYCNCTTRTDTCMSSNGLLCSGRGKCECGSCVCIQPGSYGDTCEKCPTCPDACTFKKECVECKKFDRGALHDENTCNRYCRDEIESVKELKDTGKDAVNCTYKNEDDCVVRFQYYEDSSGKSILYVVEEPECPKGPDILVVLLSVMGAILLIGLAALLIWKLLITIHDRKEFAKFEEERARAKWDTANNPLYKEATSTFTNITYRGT
Protocol: To investigate the inhibitory role of the RGD analogues on adhesion, the platelet GPIIb-IIIa receptor which mediates platelet aggregation upon activation was used as a model.
Platelet concentrates were prepared from human whole blood in 10% adenine-citrate-dextrose in Fenwall bags (Baxter Travenol, Israel) followed by standard AABB protocol. Platelet rich plasma was prepared by centrifugation (2500 rpm for 5 min). Samples of platelets were counted in a Minos AST Cell Counter (Levoiselle, France). Cell aggregation was induced by […] and monitored at […] in a 4-channel Aggregometer (Bio-Data, Hatboro, Pa.). To evaluate the effect of the various RGD peptides and the peptide analogues, the platelet rich plasma was pre-incubated with the various inhibitors for 10 min at 37° C. with 10μsolutions followed by the induction of aggregation.
To examine the specificity of the inhibitory effect of the RGD-analogues on platelet aggregation, the cells were treated with various peptidic (RGD and GRGDSP) and non-peptidic (SF-6,6, SF-6,5 and AC-15) RGD analogues used at a fixed sub-saturating concentration of 0.5 mM.
An in vitro assay as described in Example 17 was carried out with the compound NS-11 to examine its ability to interfere with platelet aggregation, and compared it to the SF-6,5 surrogate.
Platelet rich plasma (PRP) was prepared from acid/citrate/dextrose anti-coagulated fresh human blood by differential centrifugation. Platelet aggregation was induced by […] and monitored at 695 nm by a 4-channel Aggregometer (Bio-Data, PA). To evaluate the effect of the RGDS peptide and the NS-8, NS-11 and NS-15 analogs, the PRP was preincubated with the inhibitors for 10 minutes at 37° C., prior to the induction of aggregation. […] In fact, 50% inhibition of platelet aggregation was achieved using a 30-fold lower concentration of NS-11 than that of RGDS.

[4] = tested on: CD4^+ T cell adhesion to FN; assay: Inhibition of activated CD4+ T cell adhesion to FN; format: cell-based, human; conditions: Table 1B, surrogates 0.2 mM; for % Inhibition of adhesion: CD4^+ T cell to FN; for % Adhesion of activated CD4^+ to FN: none 65
Protocol: as §1
as §2, with “The tested non-peptidic surrogates, 0.2 mM in PBS, were used to pretreat the T cells for 15 min before seeding the cells *, P<0.05.” left out
In a second series of experiments, FN was used in the adhesion assay carried out with the RGD surrogates NS-8, NS-11 and NS-15 in comparison to RGDS peptide.
In a third series of experiments, FN was used in the adhesion assay with the surrogates SF-6,5 and NS-11 and compared to the peptide GRGDSP.

[5] = tested on: B16-melanoma cells adhesion to VN; assay: Inhibition of B16-melanoma cell adhesion to VN; format: cell-based, murine; conditions: surrogates 0.2 mM; for % inhibition of adhesion of B16-melanoma cells to VN: * P<0.05; for % Adhesion of B16-melanoma cells to VN: none 68 ± 5
Protocol: (§4) To examine the adhesive properties of tumor cells, 1 μg/50μ/well of FN or 0.3μg/well of VN were added to 96-flat bottom microtiter wells for 12 h. Unbound proteins were then washed away and remaining binding sites were blocked with 0.1% BSA added to the wells for 2 h and washed. Murine B16-melanoma F-1 cells were metabolically labeled with ^35 S-methionine (New England Nuclear) for 2 h, chased for 18 h and extensively washed. The cell suspension was resuspened in RPMI supplemented with 1% BSA containing 1 mM CaCl2 and MgCl2. Tumor cell adhesion to control wells or to wells coated with BSA was always 2-5%. The tested non-peptidic surrogates, 0.2 mM in PBS, were used to pretreat the tumor cells for 15 min before seeding the cells *, P<0.05.
(§5) In a first series of experiments, the potential inhibitory action of the RGD surrogate SF-6,5 on adhesion of B16 melanoma cells to FN or VN was compared to that of the RGE surrogate SF-6,6 and to that of RGD, GRGDSPK and GRGESP peptides.

[6] = tested on: B16-melanoma cells adhesion to FN; assay: Inhibition of B16-melanoma cell adhesion to FN; format: cell-based, murine; conditions: surrogates 0.2 mM; for % inhibition of adhesion of B16-melanoma cells to FN: * P<0.05; for % Adhesion of B16-melanoma cells to FN: none 75 ± 5
Protocol: as §4, §5
In a further set of experiments, the inhibitory activity of the RGD surrogates SF-6,5 and NS-11 on the adhesion of B16 murine melanoma cells to FN was compared to that of the GRGDSP peptide.

Molecule	% inhibition of adhesion of activated CD4^+ T cell to LN [1] [%]	% Adhesion of activated CD4^+ T cell to LN [1] [%]	% inhibition of adhesion of activated CD4^+ T cell to 120 kD fragment of FN [2] [%]	% Adhesion of activated CD4^+ T cell to 120 kD fragment of FN [2] [%]	T cell adhesion to FN, in words [2]	Inhibition of platelet aggregation at fixed concentration, in words [3]	% Inhibition of adhesion [4] [%]	% Adhesion of activated CD4^+ to FN [4] [%]	T cell adhesion to LN, in words ([1]; 0.2 mM)	% inhibition of adhesion of B16-melanoma cells to VN [5] [%]	% Adhesion of B16-melanoma cells to VN [5] [%]	% inhibition of adhesion of B16-melanoma cells to FN [6] [%]	% Adhesion of B16-melanoma cells to FN [6] [%]
N=C(N)NCCCCC(=O)NCC(=O)NCCC(=O)O [AC-4, 4,7-diaza-5,8-dioxo-12-quanidino-dodecanoic acid]	0	57 ± 4	47	16 ± 3	inhibited T cell adhesion to FN								
N=C(N)NCCCC(=O)NCCC(=O)NCCC(=O)O [AC-14, 4,8-diaza-5,9-dioxo-12-quanidino-dodecanoic acid]	0	55 ± 6	42	25 ± 4	inhibited T cell adhesion to FN								
N=C(N)NCCCCC(=O)NCCCCCC(=O)O [AC-15, 7-aza-8-oxo-12-quanidino-dodecanoic acid]	0	52 ± 4	19	35 ± 5	inhibited T cell adhesion to FN	even higher than that of the GRGDSPK peptide							
N=C(N)NCCCCC(=O)N1CCCCC1C(=O)NCCC(=O)O (stereo not shown) [NS-8]							31	45					
N=C(N)NCCC(=O)Nc1cccc(C(=O)NCCC(=O)O)c1 [NS-15]							59	27					
NCCCCCC(=O)NCCCCC(=O)O [SFN-70, reference compound]	0	49 ± 6	0	42 ± 5	did not inhibit T cell adhesion to both FN and LN				did not inhibit T cell adhesion to both FN and LN				
Arg-Gly-Asp [RGD]	0	57 ± 3	12	38 ± 3	specifically inhibited	not an effective inhibitor				0	66 ± 6	7	70 ± 3
GRGESP	0	52 ± 3	0	46 ± 3						0	66 ± 8	0	73 ± 5
RGDS [reference compound]							67	22					
